In patent US20080075786A1, “Antimicrobial agents derived from cream” (Universite de Montreal, priority 2006, published 2008):
Read-outs that look alike come from different tables or passages of the source.

What was measured:
[1] = tested on: A. fumigatus; assay: Antifungal assay against A. fumigatus (optical density at 630 nm); assay type: cell-based
Procedure: (§1) Fractionation of Blackcurrant Seed Oil. Journal of the American Oil Chemists Society 65: 755-760). […] Under constant stirring, the mixture was heated to 75° C., or until it became clear, and then cooled slowly to 2° C. After completion of urea crystallization at 2° C. (15 h), the UFFA enriched methanol phase was separated from the urea crystals by centrifugation (5 min) at 1000×g. […] Yields were determined gravimetrically. […] UV detection was used to monitor effluent at 215 nm. Water (10 ml) was added to each of the 45 collected HPLC fractions, and they were then extracted three times with hexane (3×10 ml). […] Antifungal assay using commercial FFA were done in quadruplicates. The antifungal activity was evaluated in 96-well microtiter plates (Costar 3595) using Sabouraud as incubating medium for A. fumigatus and dextrose-free Sabouraud for C. albicans. Spores of A. fumigatus (Jeanine Joly, Université de Montréal) were germinated at 25° C. on slant agar Sabouraud media. They were harvested by washing vigorously slant cultures with 5 ml of 0.9% NaCl. Coarse debris were removed by filtrating the Aspergillus spores suspension through a sterile cotton plugs inserted into a Pasteur pipet. Monodisperse spores suspensions were obtained following brief sonications in a water bath sonicator (Branson 1210). […] Blastospores of the C. albicans SC5314 strain were prepared as for germination inhibition assays (see above). […] Wells were washed three times with Sabouraud before optical reading.

[2] = tested on: C. albicans SC5314 strain; assay: Antifungal assay against C. albicans (optical density at 630 nm); assay type: cell-based, Candida albicans; conditions: Candida albicans, SC5314, 40 h, dextrose-free Sabouraud, 37° C., commercial FFA
Procedure: as §1

[3] = Cytotoxicity assay (LDH release); conditions: human
Procedure: Cytotoxicity was evaluated using Peripheral Blood Mononuclear cells (PBMC) of volunteers donors (Royal Victoria Hospital, Montreal). These cells were purified by the ficoll-Paque PLUS according to the manufacturer (Amersham-Bioscience). PBMC were used at a density of 100 000 cells/ml in RPMI 1640 (Sigma) supplemented with 10% heat-inactivated fetal bovine serum, 0.3 g/L of L-glutamine, 2 g/L sodium carbonate, 100 U/ml of penicillin and 100 μg/ml of streptomycin (Sigma). Assays were done in 96-well microtiter plates (Costar 3595) and the cytotoxicity was evaluated after 24 hours of incubation at 37° C. in a 5% CO2 atmospheric incubator using the LDH Cytotoxicity detection kit, according to the manufacturer (Roche Diagnostic). […] FFA were diluted in ethanol (96%) and no more than 1% ethanol (final concentration) was used in assays. Ethanol (1%) was used as negative control.
This method measures the release of lactate dehydrogenase (LDH) from the cytosol of damaged cells into the supernatant (Roche Diagnostic).

[4] = tested on: mammalian cells; assay: Toxicity for mammalian cells in vitro; assay type: cell-based; conditions: thousand fold less concentrated solution than 10 mM; Bergsson et al., 2001; data not shown
[5] = tested on: Candida albicans SC5314 strain; assay: Germination inhibition assay (antihyphal growth activity); assay type: cell-based; conditions: for activity at inhibiting C. albicans germination: individual commercial free fatty acids, highest concentration used 81 μM
Procedure: The Candida albicans SC5314 strain (Fonzi, W. A. and Irwin, M. Y. 1993. Isogenic strain construction and gene mapping in Candida albicans. Genetics 134: 717-728.) was used to investigate the antihyphal activity of whey cream lipids. This strain was routinely grown as yeast cells at 30° C. in YPD medium (1% yeast extract, 2% peptone, 2% dextrose). Germination was induced by incubating cells in dextrose-free Sabouraud (Difco; Joshi, K. R., Gavin, J. B., and Bremner, D. A. 1973. The formation of germ tubes by Candida albicans in various peptone media. Sabouraudia. 11: 259-262.) at 37° C. in 96-wells microtiter plates (Costar 3595). Briefly, cells from fresh YPD cultures were harvested and washed twice with sterile water. Washed cells were suspended in dextrose-free Sabouraud at a density of 5×10^3 cells/ml and then immediately distributed to microtiter wells containing an equal volume of dextrose-free Sabouraud supplemented with different concentrations of lipids. After 15 h incubation at 37° C. in an atmospheric incubator without agitation, cells were washed and fixed with a fresh 1% formaldehyde solution. The ability of lipids to inhibit germination was determined by microscopic observations.

[6] = tested on: Candida albicans ZK3379 strain (CAI-4 HWP1-lacZ); assay: C. albicans HWP1-lacZ beta-galactosidase and XTT assays (kinetics of germination inhibition in hyphae inducing media); assay type: cell-based; conditions: for germ tube emergence and elongation: all inducing conditions tested (dextrose-free Sabouraud, Lee's, Spider, HFM7), 0-6 h (FIG. 2)
Procedure: Candida albicans ZK3379 strain (CAI-4 HWP1-lacZ; Hogan, D A, Vik A, Kolter R (2004). A Pseudomonas aeruginosa quorum-sensing molecule influences Candida albicans morphology. Mol Microbiol 54: 1212-1223.) was used for beta-galactosidase and XTT assays. Cells from this strain were grown in YPDA at 30° C. to a density of about 1×10^8 cells/ml (hemacytometer). These late exponentially growing cells were then washed twice with water and kept on ice until used. Germination was induced by incubating cells (final density of 5×10^5 cells/ ml) at 37° C. in 2.5 ml of either dextrose-free Sabouraud (Joshi et al., 1973), Lee's (Lee K L, Buckley H R, Campbell C C (1975). An amino acid liquid synthetic medium for the development of mycelial and yeast forms of Candida albicans. Sabouraudia 13: 148-153, Spider (Liu H, Kohler J, Fink Gr (1994). Suppression of hyphal formation in Candida albicans by mutation of a STE12 homolog. Science 266: 1723-1726 or Hypha-Forming Media (Biswas S K, Yokoyama K, Kamei K, Nishimur K, Miyaji M (2001) Inhibition of hyphal growth of Candida albicans by activated lansoprazole, a novel benzimidazole proton pump inhibitor Med Mycol 39: 283-285.), supplemented with FFAs. All lipids were dissolved in ethanol. Assays were performed in duplicate in 24-wells mictotiter plates (Costar 3526) without agitation. After appropriate incubation times (i.e. 0, 2, 4 or 6 h), microtiter plates were centrifuged for 5 min at 2000 rpm (Jouan inc. CR3i) and supernatents, discarded. XTT assays were done immediately and essentially as described (Honraet K, Goetghebeur E, Nelis H J (2005). Comparison of three assays for the quantification of Candida biomass in suspension and CDC reactor grown biofilms. J Microbiol Methods 63: 287-295). For beta-galactosidase assays, microtiter plates were frozen at −80° C. and processed later as described (Kippert F (1995). A rapid permeabilization procedure for accurate quantitative determination of beta-galactosidase activity in yeast cells. FEMS Microbiol Lett 128: 201-206; Hogan et al., 2004) but directly in microtiters plates. Absorbances were measured in 96-well microtiters plates using a microtiter plate reader (Microplate Reader MR600), equipped with filters of 410 nm (beta-galactosidase) and 490 nm (XTT), respectively.
As inhibition of germination of C. albicans by molecules could be the result of early and/or late blocking events, a more comprehensive analysis of the activity of free fatty acids was performed using multiple time points and other germ tube inducing media. Therefore, germination was monitored at 0, 2, 4 and 6 h in dextrose-free Sabouraud, Lee's, Spider and HFM7 (i.e. serum) media using the C. albicans HWP1-lacZ assay: beta-galactosidase measurements should reflect the morphological change from yeast cells to hyphal growth (Hogan et al., 2004). beta-galactosidase results were normalized using the XTT assay (Honraet et al., 2005) to correct for biomass increase. Microscopic observations of cells after 6 h incubation are also presented for each inducing conditions and correlated with beta-galactosidase data (FIG. 2).

[7] = tested on: C. albicans yeast cells; conditions: 10 mM; cited from earlier work
[8] = tested on: C. albicans reporter strain ZK3379 (HWP1-lacZ); conditions: for Relative beta-galactosidase expression (filamentous growth): 18 h, 37° C., percentage of control cultures without fatty acids
Procedure: The effects of fatty acids gamma-linolenic acid and alpha-linolenic acid on filamentous growth of Candida albicans were determined in a filamentation assay. C. albicans reporter strain ZK3379 (HWP1-lacZ; Hogan et al., 2004) was propagated in yeast extract-peptone-dextrose (YPD) for 24 h at 30° C. Prior to the assay, cells were washed twice with phosphate-buffered saline (PBS 1×). Flasks (125 ml) containing 10 ml of prewarmed RPMI 1640/20 mM MOPS (pH 7.0) were inoculated with washed cells at a final concentration of 10^6 cells per ml. Working solutions of fatty acids (25 mM and 6.25 mM) were prepared freshly in ethanol 70%. Fatty acids were diluted in medium at final concentrations of 100 μM and 25 μM. An equal volume (40 μl) of ethanol 70% was added to control cultures. In all cultures, the final concentration of ethanol was 0.4% (v/v). Flasks were incubated at 37° C. for 18 h with shaking (ca. 200 RPM). Cells were collected by filtration (Millipore, 0.45 μm) and washed with PBS 1×. beta-galactosidase was assayed according to the method of Rose and Botstein (1983), where crude protein extracts are prepared and the activity is normalized to the amount of protein assayed. Relative amounts of beta-galactosidase activity were used as a measure of the amount of filamentous growth.

[9] = Candida albicans, SC5314, commercial free fatty acids, complete inhibition of germination, 15 h, 37° C., gravimetrical quantification, read-out: MIC, antihyphal growth activity of individual free fatty acids
[10] = Candida albicans, SC5314, same MIC in μg/ml (in brackets), commercial free fatty acids, gravimetrical quantification, read-out: MIC, antihyphal growth activity of individual free fatty acids
[11] = commercial free fatty acids, complete inhibition of germination, 15 h, 37° C., gravimetrical quantification, read-out: MIC, antihyphal growth activity of individual free fatty acids
[12] = Candida albicans, SC5314, 15 h, read-out: MIC, antihyphal growth activity of individual free fatty acids
[13] = Candida albicans, SC5314, read-out: MIC, antihyphal growth activity of individual free fatty acids

Molecule | MIC [5, 9] | MIC [5, 10] | MIC [5, 11] | MIC [5, 12] | MIC [5, 13] | activity at inhibiting C. albicans germination [5] | further results
CC(C)CCCCCCCCCC(=O)O [12-methyldodecanoic acid (C13:0 i)] |  |  |  |  |  |  | IC50 ([1]; Aspergillus fumigatus, 40 h, Sabouraud, 30° C., commercial FFA): ~283 µM; IC50 [2]: ~49 µM; CC50 at 24 h [3]: 70 µM
CCCCCCCCCCCC(=O)O [12:0, lauric acid] | 9 µM | 1.8 µg/mL | 9 µM |  |  |  | toxicity for mammalian cells in vitro [4]: not toxic; germ tube emergence and elongation [6]: completely inhibited the emergence of germ tubes; killing C. albicans yeast cells [7]: highly active
CCCCCCCCCCCCCC(=O)O [14:0, myristic acid, reference compound] |  |  |  | > 81 µM | > 18.5 µg/mL | inactive | 
CCCCCCCCCCCCCCC(=O)O [15:0, pentadecanoic acid, reference compound] | > 81 µM | > 19.6 µg/mL |  |  |  | inactive | 
CCCCCCCCCCCCCCCC(=O)O [16:0, palmitic acid, reference compound] |  |  |  | > 81 µM | > 20.8 µg/mL | inactive | 
CCCCCC/C=C\CCCCCCCC(=O)O [16:1(n-7), palmitoleic acid] | 9 µM | 2.29 µg/mL | 9 µM |  |  |  | toxicity for C. albicans blastospores ([6]; Lee's medium, data not shown): toxic; appearance of germ tubes ([6]; Spider and HFM7 media): partially inhibited the appearance of germ tubes
CCCCCCCCCCCCCCCCC(=O)O [17:0, heptadecanoic acid, reference compound] | > 81 µM | > 21.9 µg/mL |  |  |  | inactive | 
CCCCCCCCCCCCCCCCCC(=O)O [18:0, stearic acid, reference compound] |  |  |  | > 81 µM | > 23 µg/mL | inactive | 
CCCCCCCC/C=C\CCCCCCCC(=O)O [18:1(n-9), oleic acid, reference compound] |  |  |  | > 81 µM | > 18.5 µg/mL | no or weak activity | activity against the germination of C. albicans ([6]; all inducing media but HFM7): weak or no activity
CCCCC/C=C\C/C=C\CCCCCCCC(=O)O [18:2(n-6), linoleic acid] | 81 µM | 22.7 µg/mL | 81 µM |  |  |  | germ tube emergence and elongation [6]: produced germ tubes (2-4 h), but their further elongation was blocked
CCCCC/C=C\C/C=C\C/C=C\C/C=C\CCCC(=O)O [20:4(n-6), arachidonic acid] | 27 µM | 8.22 µg/mL | 27 µM |  |  |  | appearance of germ tubes ([6]; Spider and HFM7 media): partially inhibited the appearance of germ tubes; appearance of germ tubes ([6]; dextrose-free Sabouraud and Lee's inducing media): strongly inhibited the appearance of germ tubes
CCCCC/C=C\C/C=C\C/C=C\CCCCC(=O)O [gamma-linolenic acid (C18:3n-6), gamma-linolenic acid] |  |  |  |  |  |  | IC50 ([1]; Aspergillus fumigatus; Sabouraud, 30° C., 40 h; commercial FFA): 13.4 µM; IC50 [2]: 2.34 µM; Relative beta-galactosidase expression (filamentous growth) ([8]; 25 μM): 5.9 (±6.8) %; Relative beta-galactosidase expression (filamentous growth) ([8]; 100 μM): 0.5 (±0.7) %; germination of C. albicans ([8]; 100 μM, RPMI 1640/20 mM MOPS (pH 7.0), HWP1-LacZ strain): completely inhibited; antifungal activity in RPMI 1640/20 mM MOPS media ([8]; 100 μM, data not shown): not detected; CC50 at 24 h ([3]; Toxicity (TC50) PBMCs): 41 µM
conjugated linoleic acid [18:2(CLA 9c-11t)] |  |  | 9 µM |  |  |  | MIC, antihyphal growth activity of individual free fatty acids ([5]; same MIC in μg/ml (in brackets), commercial free fatty acids, gravimetrical quantification): 2.52 µg/mL; germ tube emergence and elongation [6]: produced germ tubes (2-4 h), but their further elongation was blocked
